Where a name gives a salt, the structure may show the parent alone.
Experiments:
[1] = test system: unanesthetized spontaneously hypertensive rats; experiment: Heart rate determined simultaneously with blood pressure (sphygmometer connected to the pulse output); format: in vivo, rat; details: 10 mg/kg oral
Method: (§1) The anti-hypertensive activity of the compounds was determined by the tail cuff method using unanesthetized spontaneously hypertensive rats weighing 300 to 350 g (21 to 25 week old). In this experiment, the systolic blood pressure was determined by the bloodless method using a hemodynamometer. The heart rate was determined simultaneously using a sphygmometer connected to the pulse output. After rats were placed under condition of 40° C. for 10 minutes, the blood pressure was determined by holding the rats in a holder. The test compounds were suspended in a 0.5 wt% aqueous gum arabic. Hydralazine hydrochloride used as a comparative agent was administered as an aqueous solution thereof. The volume of oral administration was 0.5 ml per 100 g of body weight.

[2] = test system: unanesthetized spontaneously hypertensive rats; experiment: Anti-hypertensive activity, systolic blood pressure, tail cuff method; format: in vivo, rat; details: 10 mg/kg oral
Method: as §1

[3] = test system: Rats, pylorus portion ligated (gastric secretion); experiment: Gastric secretion inhibitory activity in pylorus-ligated rats; format: in vivo, rat; details: 10 mg/kg into the duodenum
Method: Rats weighing 200 to 250 g (8 rats per group) which have been fasting for 24 hours before testing were subjected to abdominal section under ether anesthesia, and the pylorus portion was ligated. Immediately after ligation, the test compound was administered into the duodenum as a suspension in a 5 wt% aqueous gum arabic at a volume of 2 ml/kg. The rats were sacrificed after 6 hours, and the stomach was extracted. The gastric juice was collected to determine the volume thereof, and the acidity of the gastic juice was titrated to a pH 7.0 with a 0.02N aqueous sodium hydroxide solution using a pH meter. The acid secretion amount per 6 hours (μEq/6 h) was calculated by (volume of gastric juice×acidity of gastric juice).

[4] = test system: ddY male mice, KCN-induced anoxia; experiment: Activity on KCN-induced anoxia in mice; format: in vivo, mouse; details: for Number of Survived Mice/Total Mice / Survival Time: KCN 2.5 mg/kg i.v.; for Brain protection activity (in words): Table 5

SMILES	Changes in Heart Rate ([1]; 1 hr after administration)	Changes in Heart Rate ([1]; 2 hrs after administration)	Changes in Heart Rate ([1]; 4 hrs after administration)	Changes in Heart Rate ([1]; 6 hrs after administration)	Changes in Systolic Blood Pressure ([2]; 2 hrs after administration)	Changes in Systolic Blood Pressure ([2]; 4 hrs after administration)	Changes in Systolic Blood Pressure ([2]; 6 hrs after administration)	Changes in Heart Rate ([1]; 24 hrs after administration)	Changes in Systolic Blood Pressure ([2]; 1 hr after administration)	Changes in Systolic Blood Pressure ([2]; 24 hrs after administration)	further results
CCOC(=O)c1ncn(C[C@@H]2C[C@@H]3c4cccc5[nH]cc(c45)C[C@H]3N(C)C2)c1C [Example 15B, ethyl 5-methyl-1-(6-methylergolin-8β-ylmethyl)-4-imidazolecarboxylate]	-4 Δ/min.	5 Δ/min.	-8 Δ/min.	-11 Δ/min.	-49 Δ mmHg	-59 Δ mmHg	-59 Δ mmHg	–	–	–	–
Cc1nccn1C[C@@H]1C[C@@H]2c3cccc4[nH]cc(c34)C[C@H]2N(C)C1 [Example 9, 2-Methyl-1-(6-methylergolin-8β-ylmethyl)imidazole]	-12 Δ/min.	-27 Δ/min.	-36 Δ/min.	-32 Δ/min.	-59 Δ mmHg	-60 Δ mmHg	-55 Δ mmHg	-3 Δ/min.	-50 Δ mmHg	-9 Δ mmHg	–
CN1C[C@H](Cn2ccnc2-c2ccccc2)C[C@@H]2c3cccc4[nH]cc(c34)C[C@H]21 [Example 13, 1-(6-Methylergolin-8β-ylmethyl)-2-phenylimidazole]	-46 Δ/min.	-49 Δ/min.	-49 Δ/min.	–	-46 Δ mmHg	-54 Δ mmHg	-48 Δ mmHg	–	-52 Δ mmHg	–	–
CN1C[C@H](Cn2ccnc2)C[C@@H]2c3cccc4[nH]cc(c34)C[C@H]21 [Example 1, 1-(6-Methylergolin-8β-ylmethyl)imidazole]	-39 Δ/min.	-56 Δ/min.	-25 Δ/min.	-58 Δ/min.	-49 Δ mmHg	-48 Δ mmHg	-60 Δ mmHg	-44 Δ/min.	-78 Δ mmHg	-14 Δ mmHg	Volume of Acid Secreted, Inhibition ([3]; 6 hours): 73.3%; Volume of Gastric Juice, Inhibition ([3]; 6 hours): 67.8%; Total Acidity ([3]; 6 hours, *p < 0.05): 62.9 ± 3.8 mEq/liter
CC(C)(CO)[C@@H](O)C(=O)NCCCC(=O)O [Calsium Hopantenate]	–	–	–	–	–	–	–	–	–	–	Number of Survived Mice/Total Mice ([4]; 500 mg/kg i.p.): 0/9; Survival Time ([4]; 500 mg/kg i.p.): 43.8 ± 2.5 s; Brain protection activity (in words) [4]: did not show any significant activity
CN1C[C@H](Cn2cccn2)C[C@@H]2c3cccc4[nH]cc(c34)C[C@H]21 [Example 4, 1-(6-Methylergolin-8β-ylmethyl)pyrazole]	-16 Δ/min.	-38 Δ/min.	-52 Δ/min.	-41 Δ/min.	-51 Δ mmHg	-58 Δ mmHg	-49 Δ mmHg	-7 Δ/min.	-37 Δ mmHg	-15 Δ mmHg	–
CN(C)CCOC(=O)COc1ccc(Cl)cc1 [Meclofenoxate Hydrochloride]	–	–	–	–	–	–	–	–	–	–	Number of Survived Mice/Total Mice ([4]; 200 mg/kg i.p.): 0/6; Survival Time ([4]; 200 mg/kg i.p.): 47.7 ± 4.4 s; Brain protection activity (in words) [4]: did not show any significant activity
CN1CC(=O)N(C[C@@H]2C[C@@H]3c4cccc5[nH]cc(c45)C[C@H]3N(C)C2)C1=O [Example 3, 1-Methyl-3-(6-methylergolin-8β-ylmethyl)imidazolidin-2,4-dione]	26 Δ/min.	1 Δ/min.	2 Δ/min.	-4 Δ/min.	-66 Δ mmHg	-31 Δ mmHg	-27 Δ mmHg	1 Δ/min.	-57 Δ mmHg	-4 Δ mmHg	Volume of Acid Secreted, Inhibition ([3]; 6 hours): 52.9%; Volume of Gastric Juice, Inhibition ([3]; 6 hours): 48.4%; Total Acidity ([3]; 6 hours, *p < 0.05): 70.0 ± 5.3 mEq/liter; pH of gastric juice ([3]; 6 hours, *p < 0.05): 2.07 ± 0.22; Acid output per 6 h ([3]; *p < 0.05): 198.7 ± 34.3 μEq/6 h; Survival Time ([4]; 10 mg/kg i.p., **p < 0.01, ***p < 0.001, survivors counted as 180 sec): 101.6 ± 17.8 s; Number of Survived Mice/Total Mice ([4]; 10 mg/kg i.p., survived longer than 3 minutes): 2/8
CN1C[C@H](CN2C(=O)CCC2=O)C[C@@H]2c3cccc4[nH]cc(c34)C[C@H]21 [Example 8, N-(6-methylergolin-8β-ylmethyl)succinimide]	6 Δ/min.	3 Δ/min.	-32 Δ/min.	-40 Δ/min.	-77 Δ mmHg	-59 Δ mmHg	-66 Δ mmHg	–	-64 Δ mmHg	–	–
CC(C)c1nccn1C[C@@H]1C[C@@H]2c3cccc4[nH]cc(c34)C[C@H]2N(C)C1 [Example 11, 2-Isopropyl-1-(6-methylergolin-8β-ylmethyl)imidazole]	-37 Δ/min.	-21 Δ/min.	-24 Δ/min.	-46 Δ/min.	-56 Δ mmHg	-54 Δ mmHg	-58 Δ mmHg	–	-53 Δ mmHg	–	–
CCc1nccn1C[C@@H]1C[C@@H]2c3cccc4[nH]cc(c34)C[C@H]2N(C)C1 [Example 10, 2-Ethyl-1-(6-methylergolin-8β-ylmethyl)imidazole]	2 Δ/min.	-15 Δ/min.	-6 Δ/min.	-11 Δ/min.	-64 Δ mmHg	-68 Δ mmHg	-66 Δ mmHg	–	-69 Δ mmHg	–	–
CCCc1nccn1C[C@@H]1C[C@@H]2c3cccc4[nH]cc(c34)C[C@H]2N(C)C1 [Example 12, 1-(6-Methylergolin-8β-ylmethyl)-2-propylimidazole]	-25 Δ/min.	-7 Δ/min.	-8 Δ/min.	-5 Δ/min.	-59 Δ mmHg	-63 Δ mmHg	-59 Δ mmHg	–	-69 Δ mmHg	–	–
